Source: US8993614B2, “Substituted pyrrolidine-2-carboxamides” (Hoffmann-La Roche Inc., priority 2012, dated 2015)

Key:
in vivo = conditions: iv, 4.37 mg/kg
physchem = conditions: aqueous medium

An AUC(0-inf) (in vivo) of 21600 ng·h/mL, an AUC(0-t) (in vivo) of 20900 ng·h/mL and a Cmax (in vivo) of 4390 ng/mL were found for COc1cc(C(=O)O)ccc1NC(=O)[C@@H]1N[C@@H](CC(C)(C)C)[C@](C#N)(c2ccc(Cl)cc2F)[C@H]1c1cccc(Cl)c1F [Compound B, 4-((2R,3S,4R,5S)-3-(3-chloro-2-fluorophenyl)-4-(4-chloro-2-fluorophenyl)-4-cyano-5-neopentylpyrrolidine-2-carboxamido)-3-methoxybenzoic acid] in this work. For the same compound, the half-life (in vivo) was 304 min and the solubility (physchem) was < 1 µg/mL.
